Source: patent US4000299A, “1-(Imidazol-1-yl)-1-[4-(4-chlorophenyl)phenoxy]-3,3-dimethylbutan-2-one, its salts and a process for their use” (Bayer Aktiengesellschaft, priority 1974, dated 1976)
In brackets after ≈: the same amount, converted by molar mass. Like-named read-outs stand apart in the source and are kept apart here.

How the values were obtained:
Trich. ment. = test: series dilution test, MIC; type: cell-based
Candida albicans [1] = test: series dilution test, MIC; type: cell-based
Aspergillus spec. = test: series dilution test, MIC; type: cell-based
Microsporon felinum = test: series dilution test, MIC; type: cell-based; conditions: Table B
[2] = pharmacokinetics after oral administration; type: in vivo; conditions: serum, 50 mg/kg of body weight, mice and guinea pigs, read-out: serum peak concentrations
Protocol: c. Guideline data on the pharmacokinetics after oral administration. The preparations claimed are resorbed well on oral administration to mice and guinea pigs and after doses of 50 mg/kg of body weight give serum peak concentrations of 4-6 γ/ml for the case of the hydrochloride.

Microsporon canis = test: series dilution test, MIC; type: cell-based; conditions: for MIC: read-out: MIC values
Torulopsis glab. = test: series dilution test, MIC; type: cell-based; conditions: Table A
Cryptococcus neof. = test: series dilution test, MIC; type: cell-based; conditions: Table A
Sporothrix Schenckii = test: series dilution test, MIC; type: cell-based; conditions: Table A
Coccidioides immitis = test: microbe, parasite or virus in culture; type: cell-based; conditions: for MIC: read-out: MIC values; for MIC values: Table A
Pityrosporum ovale = test: series dilution test, MIC; type: cell-based; conditions: Table A; for MIC: Malassezia furfur
Staph. aureus = test: series dilution test, MIC; type: cell-based; conditions: Table A; for MIC: Staphylococcus aureus
Trichomonas vaginalis = test: series dilution test, MIC; type: cell-based; conditions: Table A
Candida albicans [3] = test: experimental candidosis in mice, oral administration; type: in vivo, White mice of the CF1 SPF strain
Protocol: I. on candidosis in mice.
White mice of the CF1 SPF strain are infected with 1-3 × 10^6 Candida albicans cells intravenously by puncture of the tail vein. Untreated control animals die from the 3rd to the 6th day after infection as a result of the candidosis of the organs which develops. If the preparations claimed are given orally in doses of 2 × 6.25 - 2 × 150 mg/kg of body weight, starting from the day of infection and up to the 5th day after infection, the following survival rates are observed: […]

[4] = 2 × 6.25 mg/kg of body weight, 6.25 mg/kg
[5] = 2 × 12.5 mg/kg of body weight, 12.5 mg/kg
[6] = 2 × 25 mg/kg of body weight, 25 mg/kg

## O=C(c1ccccc1)C(Oc1c(Cl)cccc1Cl)n1ccnc1 (stereo not drawn)
Trich. ment.; Table B, Trichophyton ment.
  MIC: 4 mg/L (≈ 11.5 µM)
Candida albicans [1]; Table B
  MIC: 4 mg/L (≈ 11.5 µM)
Aspergillus spec.; Table B
  MIC: 100 mg/L (≈ 288 µM)
Microsporon felinum
  MIC: 40 mg/L (≈ 115 µM)

## OC(O)(c1ccccc1)C(Oc1cccc(Cl)c1)n1ccnc1 (stereo not drawn)
Trich. ment.; Table B, Trichophyton ment.
  MIC: 4 mg/L (≈ 12.1 µM)
Candida albicans [1]; Table B
  MIC: 4 mg/L (≈ 12.1 µM)
Aspergillus spec.; Table B
  MIC: 40 mg/L (≈ 121 µM)
Microsporon felinum
  MIC: 40 mg/L (≈ 121 µM)

## O=C(c1ccccc1)C(Oc1ccc(Cl)cc1)(c1ccccc1)n1ccnc1 (stereo not drawn)
Trich. ment.; Table B, Trichophyton ment.
  MIC: 10 mg/L (≈ 25.7 µM)
Candida albicans [1]; Table B
  MIC: 10 mg/L (≈ 25.7 µM)
Aspergillus spec.; Table B
  MIC: 10 mg/L (≈ 25.7 µM)
Microsporon felinum
  MIC: 40 mg/L (≈ 103 µM)

## O=C(c1ccccc1)C(Oc1cccc(Cl)c1)n1ccnc1 (stereo not drawn)
Trich. ment.; Table B, Trichophyton ment.
  MIC: 4 mg/L (≈ 12.8 µM)
Candida albicans [1]; Table B
  MIC: 10 mg/L (≈ 32 µM)
Aspergillus spec.; Table B
  MIC: 40 mg/L (≈ 128 µM)
Microsporon felinum
  MIC: 40 mg/L (≈ 128 µM)

## CC(C)(C)C(=O)C(Cn1ccnc1)Oc1ccc(Cl)cc1 (stereo not drawn)
Trich. ment.; Table B, Trichophyton ment.
  MIC: 4 mg/L (≈ 13 µM)
Candida albicans [1]; Table B
  MIC: 4 mg/L (≈ 13 µM)
Aspergillus spec.; Table B
  MIC: 8 mg/L (≈ 26.1 µM)

## CC(C)(C)C(=O)C(Cn1ccnc1)Oc1ccc(Br)cc1 (stereo not drawn)
Trich. ment.; Table B, Trichophyton ment.
  MIC: 8 mg/L (≈ 22.8 µM)
Candida albicans [1]; Table B
  MIC: 4 mg/L (≈ 11.4 µM)
Aspergillus spec.; Table B
  MIC: 4 mg/L (≈ 11.4 µM)

## CC(C)(C)C(=O)C(Cn1ccnc1)Oc1ccccc1-c1ccccc1 (stereo not drawn)
Trich. ment.; Table B, Trichophyton ment.
  MIC: 8 mg/L (≈ 23 µM)
Candida albicans [1]; Table B
  MIC: 4 mg/L (≈ 11.5 µM)
Aspergillus spec.; Table B
  MIC: 8 mg/L (≈ 23 µM)

## CC(C)(C)C(=O)C(Cn1ccnc1)Oc1ccc(F)cc1 (stereo not drawn)
Trich. ment.; Table B, Trichophyton ment.
  MIC: 8 mg/L (≈ 27.6 µM)
Candida albicans [1]; Table B
  MIC: 4 mg/L (≈ 13.8 µM)
Aspergillus spec.; Table B
  MIC: 4 mg/L (≈ 13.8 µM)

## CC(C)(C)C(=O)C(Oc1ccc(-c2ccc(Cl)cc2)cc1)n1ccnc1.Cl (stereo not drawn) [Example 1, 1-(imidazol-1-yl)-1-[4-(4-chlorophenyl)phenoxy]-3,3-dimethyl-butan-2-one hydrochloride]
[2]
  Cmax: 4 to 6 µg/mL

## COC1=CC(=O)C[C@@H](C)[C@]12Oc1c(Cl)c(OC)cc(OC)c1C2=O [Griseofulvin, griseofulvin]
Trich. ment.; Table A, Trich. ment.
  MIC: 5 to 10 mg/L (≈ 14.2 to 28.3 µM)
Microsporon canis
  MIC: 5 to 10 mg/L (≈ 14.2 to 28.3 µM)
Candida albicans [1]; Table A
  MIC: > 100 mg/L
Torulopsis glab.
  MIC: > 100 mg/L
Cryptococcus neof.
  MIC: > 100 mg/L
Aspergillus spec.; Table A
  MIC: 40 to 100 mg/L (≈ 113 to 283 µM)
Sporothrix Schenckii; Sporothrix schenckii
  MIC: > 100 mg/L
Coccidioides immitis
  MIC: > 100 mg/L
Pityrosporum ovale
  MIC: > 100 mg/L
Staph. aureus
  MIC: > 100 mg/L
Trichomonas vaginalis
  MIC: > 1000 mg/L

## C[C@@H]1[C@H](O)[C@@H](C)/C=C/C=C/CC/C=C/C=C/C=C/C=C/C(O[C@H]2O[C@H](C)[C@@H](O)[C@H](N)[C@@H]2O)CC2O[C@](O)(CC(O)C(O)CCC(O)CC(O)CC(O)CC(=O)O[C@H]1C)CC(O)C2C(=O)O (stereo partly drawn) [Nystatin, nystatin]
Trich. ment.; Table A, Trich. ment.
  MIC values: 20 mg/L (≈ 21.6 µM)
Microsporon canis; Table A, Microsporon canis
  MIC values: 20 to 40 mg/L
Candida albicans [1]; Table A
  MIC values: 5 mg/L (≈ 5.4 µM)
Torulopsis glab.
  MIC values: 5 mg/L (≈ 5.4 µM)
Cryptococcus neof.
  MIC values: 4 to 10 mg/L
Aspergillus spec.; Table A
  MIC values: 40 to 100 mg/L
Sporothrix Schenckii
  MIC values: 40 mg/L (≈ 43.2 µM)
Coccidioides immitis
  MIC values: 40 mg/L (≈ 43.2 µM)
Staph. aureus
  MIC values: > 100 mg/L
Trichomonas vaginalis
  MIC values: > 1,000 γ/ml
Candida albicans [3]; 2 × 6.25 mg/kg of body weight
  Survival rates on the 6th day after infection: < 10%
Candida albicans [3]; 2 × 12.5 mg/kg of body weight
  Survival rates on the 6th day after infection: < 10%
Candida albicans [3]; 2 × 25 mg/kg of body weight
  Survival rates on the 6th day after infection: < 10%
Candida albicans [3]; 2 × 50 mg/kg of body weight
  Survival rates on the 6th day after infection: < 10%
Candida albicans [3]; 2 × 100 mg/kg of body weight
  Survival rates on the 6th day after infection: 30%
Candida albicans [3]; 2 × 150 mg/kg of body weight
  Survival rates on the 6th day after infection: 50%

## CC(C)(C)C(=O)C(Oc1ccc(-c2ccc(Cl)cc2)cc1)n1ccnc1 (stereo not drawn) [drawing 4]
Trich. ment.; Table A, Trich. ment.
  MIC: < 1 mg/L
Microsporon canis; Table A, Microsporon canis
  MIC: < 1 mg/L
Candida albicans [1]; Table A
  MIC: 2 to 4 mg/L (≈ 5.42 to 10.8 µM)
Torulopsis glab.
  MIC: 2 mg/L (≈ 5.42 µM)
Cryptococcus neof.
  MIC: 1 to 2 mg/L (≈ 2.71 to 5.42 µM)
Aspergillus spec.; Table A
  MIC: < 1 mg/L
Sporothrix Schenckii
  MIC values: 0.1 mg/L (≈ 0.271 µM)
Coccidioides immitis
  MIC: 0.1 mg/L (≈ 0.271 µM)
Pityrosporum ovale
  MIC: < 1 mg/L
Staph. aureus
  MIC: 8 mg/L (≈ 21.7 µM)
Trichomonas vaginalis
  MIC: 250 mg/L (≈ 678 µM)

## CC(C)(C)C(=O)C(Oc1ccc(-c2ccc(Cl)cc2)cc1)n1ccnc1 (stereo not drawn) [drawing 5]
Trich. ment.; Table A, Trich. ment.
  MIC values: < 1 mg/L
Microsporon canis; Table A, Microsporon canis
  MIC values: < 1 mg/L
Candida albicans [1]; Table A
  MIC values: 2 mg/L (≈ 5.42 µM)
Torulopsis glab.
  MIC values: 2 mg/L (≈ 5.42 µM)
Cryptococcus neof.
  MIC values: 1 to 2 mg/L
Aspergillus spec.; Table A
  MIC values: < 1 mg/L
Sporothrix Schenckii
  MIC values: 0.5 mg/L (≈ 1.36 µM)
Coccidioides immitis
  MIC values: 0.1 mg/L (≈ 0.271 µM)
Pityrosporum ovale
  MIC values: < 1 mg/L
Staph. aureus
  MIC values: 4 mg/L (≈ 10.8 µM)
Trichomonas vaginalis
  MIC values: 250 µg/mL (≈ 678 µM)

## CC(C)(C)C(=O)C(Oc1ccc(-c2ccc(Cl)cc2)cc1)n1ccnc1 (stereo not drawn) [drawing 14]
Candida albicans [3]; [4]
  Survival rates on the 6th day after infection: 55%
Candida albicans [3]; [5]
  Survival rates on the 6th day after infection: 70%
Candida albicans [3]; [6]
  Survival rates on the 6th day after infection: 80%
Candida albicans [3]; 2 × 50 mg/kg of body weight
  Survival rates on the 6th day after infection: 100%
Candida albicans [3]; 2 × 100 mg/kg of body weight
  Survival rates on the 6th day after infection: 100%
Candida albicans [3]; 2 × 150 mg/kg of body weight
  Survival rates on the 6th day after infection: 100%

## CC(C)(C)C(=O)C(Oc1ccc(-c2ccc(Cl)cc2)cc1)n1ccnc1 (stereo not drawn) [drawing 15]
Candida albicans [3]; [4]
  Survival rates on the 6th day after infection: 95%
Candida albicans [3]; [5]
  Survival rates on the 6th day after infection: 95%
Candida albicans [3]; [6]
  Survival rates on the 6th day after infection: 100%
Candida albicans [3]; 2 × 50 mg/kg of body weight
  Survival rates on the 6th day after infection: 100%
Candida albicans [3]; 2 × 100 mg/kg of body weight
  Survival rates on the 6th day after infection: 100%
Candida albicans [3]; 2 × 150 mg/kg of body weight
  Survival rates on the 6th day after infection: 100%
